In US9102582B2, “Method of producing alcohols” (priority 2009, dated 2015):

Tests used:
[1] = solubility in water; details: same solubility expressed in moles
[2] = cited from earlier work

SMILES | solubility in water (molar) [1] | solubility in water [2]
CBr [methyl bromide] | 0.0094 moles per 1000 ml of water | 0.09 grams per 100 ml of water
CCCC(=O)OCC [ethyl butyrate] | 0.059 moles per 1000 ml of water | 0.68 grams per 100 ml of water
COC(=O)c1ccccc1 [methyl benzoate] | 0.001532 moles per 1000 ml of water | 0.157 grams per 100 ml of water
CCBr [ethyl bromide] | 0.0835 moles per 1000 ml of water | 0.91 grams per 100 ml of water
